One compound from patent US20240382497A1, “PROPHYLACTIC OR THERAPEUTIC AGENT FOR HYPOXIC INJURY, ISCHAEMIA-REPERFUSION INJURY AND INFLAMMATION, CELL PROTECTION AGENT FOR TRANSPLANTATION, AND BIO-PRESERVATION AGENT” (priority 2018, published 2024) can be followed below.

Experiment [1] has as its system C57/BL6N male mice. Put plainly: Survival time in 4% oxygen after odor presentation. As to conditions: odor 100 μl (104 mmol) presented 50 min before; measured up to 30 min; no odor controls all died within 20 min. The format is in vivo, mouse. The procedure:
About 3-month-old C57/BL6N male mice were each placed in a highly sealed breeding cage, and a filter paper scented with 100 μl (104 mmol) of the thiazoline-related compound (2MT) was placed in the breeding cage, and the odor was presented for 50 min. After the odor was presented, the mice were placed in a tight box in which the oxygen concentration was adjusted to 4%, and the survival time of the mice was measured up to 30 min at maximum. As a control, the survival time of mice presented with a filter paper dropped with water was also measured (no odor). Furthermore, changes in the core body temperature when the odor was presented under the same conditions as in this Example were measured by the same experimental method as in Example 4.

Experiment [2] concerns Male C57/BL6N mice. Put plainly: Skin blood flow on odor presentation (laser Doppler). The class given is in vivo, mouse. Conditions: filter paper scented with 271 μmol odor, 20 min, versus no odor. The procedure: An influence of a thiazoline-related compound and an odor molecule that induces learned fear on the skin blood flow was analyzed. Male C57/BL6N mice (about 3 months old) were anesthetized with pentobarbital (50 mg/kg, i.p.) about 5 days before the test, and the back hair was depilated with depilatory cream. A mouse restrainer having an observation window was prepared using a 50 ml tube, the mice were trained to enter the restrainer from the day after hair removal, and acclimated by performing this operation until the day before the test. On the day of testing, each mouse was placed in a restrainer, and a laser Doppler probe was attached to the shaved back of the mouse with an adhesive tape. After confirming that the blood flow signal became stable, (1) no odor was presented for 10 min, (2) Eugenol odor was presented for 10 min, (3) thiazoline-related compound (2MT) or an odor that induces learned fear (Anis-FS+) was presented for 20 min, and changes in the blood flow were measured. […] The blood flow rate was measured every 10 seconds using a laser Doppler blood flow meter (ADVANCE CO., LTD. ALF21D). The mean skin blood flow without odor (10 min) or with the presentation of a thiazoline-related compound or an odor that induces learned fear (20 min) was calculated, and the mean skin blood flow was shown as a relative value with the mean skin blood flow without odor as 100%.

Experiment [3] has as its system Male C57/BL6N mice. Put plainly: Core body temperature on odor presentation (radio-telemetry). The format is in vivo, mouse. Conditions: filter paper scented with 271 μmol odor, 20 min, versus no odor. As to the method: An influence of a thiazoline-related compound and an odor molecule that induces learned fear on the core body temperature was analyzed. A radio-telemetry device for monitoring biological parameters (manufactured by Physiotel) was surgically implanted in the abdomen of male C57/BL6N mice (about 3 months old). The mice were subjected to the following experiment after about 10 days of recovery period. Each mouse was placed in a test cage and, after acclimation for 10 min, a filter paper dropped with water was presented for 10 min, after which a filter paper scented with 271 μmol of a thiazoline-related compound (2-methyl-2-thiazoline; 2MT) or an odor molecule that induces learned fear (anisole) was presented for 20 min. The information of body temperature was recorded every 10 sec using Dataquest A.R.T. software (DataScience international). The value of the core body temperature change was calculated as the difference between the mean core body temperature for 10 min when water was presented and the mean core body temperature for 20 min when each odor molecule was presented, and the change in the core body temperature without odor was set to 0. The mice presented with the odor that induces learned fear were trained to associate the anisole odor with electric shock one day before the measurement, whereby the mice learned to feel learned fear against the smell of anisole.

In another experiment the test system is Interleukin-1β (IL-1β). As to the kind of experiment: Blood IL-1β in LPS sepsis model (ELISA). The class given is in vivo, mouse. As to conditions: about 80 mg/kg i.p., 1 hr and 4 hr, versus saline. The procedure: (§1) Lipopolysaccharide (LPS) (0.6 mg/kg) was intraperitoneally administered to male Balb/c mice (about 2-3 months old) to generate a sepsis model. Immediately after the LPS administration, 200 μl (about 80 mg/kg) of a solution prepared by diluting various heterocyclic compounds and isothiocyanate compounds 100 times with saline was intraperitoneally administered. Blood samples were collected 60 min after LPS and compound administration, EDTA plasma was prepared, and the blood level of inflammatory cytokine TNF-a was measured by the ELISA method.
(§2) A sepsis model mouse was prepared by the same method as in Example 18. Immediately after the LPS administration, 200 μl (about 80 mg/kg) of a thiazoline-related compound (2MT) solution prepared by diluting 100 times with saline was intraperitoneally administered. Blood samples were collected 1 hr and 4 hr after administration of LPS and thiazoline-related compound (2MT), EDTA plasma was prepared, and the blood levels of inflammatory cytokine Interleukin-1β (IL-1β), and anti-inflammatory cytokine Interleukin-10 (IL-10) were measured by the ELISA method.
(In general: ELISA stands for enzyme-linked immunosorbent assay.)

The next experiment concerns sepsis model mouse. Put plainly: Survival time in LPS sepsis model. The format is in vivo. Conditions: about 80 mg/kg i.p., versus saline. The procedure:
as §1
A sepsis model mouse was prepared by the same method as in Example 18. Immediately after the LPS administration, 200 μl (about 80 mg/kg) of a thiazoline-related compound (2MT) solution prepared by diluting 100 times with saline was intraperitoneally administered. The survival time of the mouse was measured when the thiazoline-related compound (2MT) was administered and when saline, as a control, was administered (saline).

The subject of experiment [4] is Trpa1 knockout and littermate hetero mice. Put plainly: Survival time in 4% oxygen of Trpa1 knockout mouse after odor presentation. The format is in vivo. As to conditions: 271 μmol odor presented 10 min, versus saline. As to the method: The thiazoline-related compound (2MT) was presented for 10 min to about 3-month-old male Trpa1 knockout and littermate hetero mice. Thereafter, the mice were placed in a tight box in which the oxygen concentration was adjusted to 4%, and the survival time of the mice was measured up to 30 min at maximum. The odor was presented by placing a filter paper scented with 271 μmol of 2MT in the breeding cage. As a control, an experiment presenting a filter paper dropped with saline was also performed (no odor).

For the next experiment, the system named is Interleukin-10 (IL-10). As to the kind of experiment: Blood IL-10 in LPS sepsis model (ELISA). The class given is in vivo, mouse. As to conditions: about 80 mg/kg i.p., 1 hr and 4 hr, versus saline. The procedure: as §1, §2
In experiment [5] the test system is C57/BL6N male mice. Put plainly: Respiratory rate on odor presentation (pulse oximeter). As to conditions: filter paper scented with 271 μmol odor, 20 min. The format is in vivo, mouse. The procedure: An influence of a thiazoline-related compound and an odor molecule that induces learned fear on the respiratory rate was analyzed. The respiratory rate was analyzed using a pulse oximeter (Mouse Oxplus; STARR Life Science). A pulse oximeter was attached to the neck of C57/BL6N male mice (about 3-month-old) from about 1 week before the test and the mice were acclimated by repeating this operation. The mice were anesthetized with pentobarbital (50 mg/kg, i.p.) 2 days before the test, and the neck hair was depilated with depilatory cream. On the day of testing, an oximeter probe was attached to the shaven neck. After confirming that the signal became stable, the no odor baseline was measured for 10 min, changes in the respiratory rate when the thiazoline-related compound (2MT) or neutral odor (Eugenol; Eug) was presented was measured for 20 min (each n=6). The odors were presented by placing filter papers scented with 271 μmol of odor in the test cage. The oximeter signal was obtained at 1 Hz.

On to `CC1=NCCS1` [2MT, 2-methyl-2-thiazoline], for which the “survival time in 4% oxygen” value in the experiment with C57/BL6N male mice [1] was “many individuals survived even after 30 min”; in experiment [4] it was “did not increase significantly”. For the same compound, the skin blood flow result in the experiment on Male C57/BL6N mice [2] is given as “decreased the skin blood flow”. For the same compound, the “changes in the core body temperature” value in the experiment on Male C57/BL6N mice [3] is “clear decrease in the core body temperature”. Besides, the “blood concentration of IL-1β” value with Interleukin-1β (IL-1β) was “decreased the blood concentration of inflammatory cytokine IL-1β”. Besides, in the experiment with sepsis model mouse, the “survival time in sepsis model” value is “extending the survival time”. Moreover, the “blood concentration of IL-10” value in the experiment on Interleukin-10 (IL-10) was “increased the blood concentration of anti-inflammatory cytokine IL-10”. In the experiment with C57/BL6N male mice [5], the respiratory rate result is “reduced the respiratory rate by about half”.
